Results from ChEMBL document CHEMBL5096179, “Small molecule approaches to treat autoimmune and inflammatory diseases (Part II): Nucleic acid sensing antagonists and inhibitors” (Bioorg Med Chem Lett, 2021).
Values belong to the compound of their own block, whether it stands above or below them.

Columns and labels:
[1] = target: T1, Toll-like receptor 7 (Homo sapiens, UniProt Q9NYK1); test: Antagonist activity at TLR7 in human PBMC incubated for 3 hrs by TR-FRET assay; assay type: cell-based
T1 sequence (Q9NYK1 whole entry): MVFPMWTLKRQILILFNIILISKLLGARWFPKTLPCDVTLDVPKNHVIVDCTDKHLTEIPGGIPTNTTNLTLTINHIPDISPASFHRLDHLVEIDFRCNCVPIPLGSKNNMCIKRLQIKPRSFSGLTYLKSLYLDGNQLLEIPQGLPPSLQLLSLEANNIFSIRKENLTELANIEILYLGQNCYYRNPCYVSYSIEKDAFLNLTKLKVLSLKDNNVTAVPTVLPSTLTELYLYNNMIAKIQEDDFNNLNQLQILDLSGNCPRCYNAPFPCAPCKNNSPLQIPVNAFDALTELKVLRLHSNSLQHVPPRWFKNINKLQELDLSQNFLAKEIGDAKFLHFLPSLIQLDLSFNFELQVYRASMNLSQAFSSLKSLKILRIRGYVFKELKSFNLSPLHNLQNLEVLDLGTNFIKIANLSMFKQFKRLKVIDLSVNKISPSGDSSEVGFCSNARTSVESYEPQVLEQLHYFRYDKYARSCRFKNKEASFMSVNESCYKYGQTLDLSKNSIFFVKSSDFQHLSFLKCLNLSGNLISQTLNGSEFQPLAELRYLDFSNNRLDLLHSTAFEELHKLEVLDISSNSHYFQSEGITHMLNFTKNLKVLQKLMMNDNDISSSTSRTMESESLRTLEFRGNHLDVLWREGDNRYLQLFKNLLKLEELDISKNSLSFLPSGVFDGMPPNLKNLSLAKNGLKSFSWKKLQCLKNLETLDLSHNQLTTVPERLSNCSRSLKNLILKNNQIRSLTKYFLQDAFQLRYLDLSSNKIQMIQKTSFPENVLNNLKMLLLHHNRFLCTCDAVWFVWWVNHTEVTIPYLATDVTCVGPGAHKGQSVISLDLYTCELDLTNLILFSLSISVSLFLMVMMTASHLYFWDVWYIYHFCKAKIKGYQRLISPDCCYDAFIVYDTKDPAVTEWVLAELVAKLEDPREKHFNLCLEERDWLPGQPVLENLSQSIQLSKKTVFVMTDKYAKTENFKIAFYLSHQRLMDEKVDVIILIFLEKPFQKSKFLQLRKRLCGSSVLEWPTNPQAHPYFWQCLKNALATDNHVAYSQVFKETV

[2] = system: RAW264.7; test: Cytotoxicity against mouse RAW264.7 cells assessed as cell growth inhibition measured after 24 hrs by Celltiter-Glo assay; assay type: functional, cell-based; conditions: RAW264.7, 24 h
[3] = target: T2, Cyclic GMP-AMP synthase (Homo sapiens, UniProt Q8N884); test: Inhibition of cGAS expressed in human THP-1 cells assessed as reduction of IFN-beta expression by ELISA assay; assay type: cell-based
[4] = target: T3, Toll-like receptor 9 (Homo sapiens, UniProt Q9NR96); test: Antagonist activity at TLR9 (unknown origin)
T3 sequence (Q9NR96 whole entry): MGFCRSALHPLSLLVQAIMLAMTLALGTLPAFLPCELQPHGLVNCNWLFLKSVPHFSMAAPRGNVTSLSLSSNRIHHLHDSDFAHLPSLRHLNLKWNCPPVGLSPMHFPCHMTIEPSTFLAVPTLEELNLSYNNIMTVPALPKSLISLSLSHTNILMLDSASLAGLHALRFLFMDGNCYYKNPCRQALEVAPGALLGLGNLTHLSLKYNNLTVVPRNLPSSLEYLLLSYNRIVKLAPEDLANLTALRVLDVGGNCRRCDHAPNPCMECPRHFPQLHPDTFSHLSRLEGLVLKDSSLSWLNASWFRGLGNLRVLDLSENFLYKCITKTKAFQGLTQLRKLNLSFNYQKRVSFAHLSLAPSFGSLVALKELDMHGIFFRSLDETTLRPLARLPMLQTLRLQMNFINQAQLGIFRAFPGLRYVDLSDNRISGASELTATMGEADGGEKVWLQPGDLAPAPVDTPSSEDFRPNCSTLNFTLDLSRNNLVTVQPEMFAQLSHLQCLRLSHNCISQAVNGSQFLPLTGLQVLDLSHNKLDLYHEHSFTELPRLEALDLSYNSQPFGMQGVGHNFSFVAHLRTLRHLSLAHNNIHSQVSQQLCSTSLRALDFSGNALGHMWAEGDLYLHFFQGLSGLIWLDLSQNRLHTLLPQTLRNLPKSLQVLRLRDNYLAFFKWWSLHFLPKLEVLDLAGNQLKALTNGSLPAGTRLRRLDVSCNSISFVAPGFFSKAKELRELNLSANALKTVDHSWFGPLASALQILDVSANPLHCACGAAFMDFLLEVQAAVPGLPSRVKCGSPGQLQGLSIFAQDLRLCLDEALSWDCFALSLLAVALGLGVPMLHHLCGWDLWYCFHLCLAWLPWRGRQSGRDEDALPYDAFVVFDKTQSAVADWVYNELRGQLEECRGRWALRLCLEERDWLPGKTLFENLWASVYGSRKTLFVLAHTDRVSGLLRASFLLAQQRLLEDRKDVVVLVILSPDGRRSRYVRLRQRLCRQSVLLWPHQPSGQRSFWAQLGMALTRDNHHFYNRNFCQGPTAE

[5] = target: NACHT, LRR and PYD domains-containing protein 3 (Mus musculus, UniProt Q8R4B8); test: Inhibition of NLRP3 inflammasome activation in LPS-primed C57BL/6 mouse bone marrow derived macrophages incubated for 30 mins in presence of ATP by immunoblotting analysis; assay type: cell-based, Macrophage
[6] = system: THP-1; test: Cytotoxicity against human THP-1 cells assessed as cell growth inhibition measured after 24 hrs by Annexin-V staining based flow cytometry analysis; assay type: functional; conditions: THP-1, 24 h
[7] = target: T4, Toll-like receptor 8 (Homo sapiens, UniProt Q9NR97); test: Antagonist activity at R848 stimulated TRL8 in HEK-Blue hTLR8 cells assessed as inhibition of NF kappa B/Ap-1 activation measured after 20 hrs by SEAP reporter assay; assay type: cell-based
T4 sequence (Q9NR97 whole entry): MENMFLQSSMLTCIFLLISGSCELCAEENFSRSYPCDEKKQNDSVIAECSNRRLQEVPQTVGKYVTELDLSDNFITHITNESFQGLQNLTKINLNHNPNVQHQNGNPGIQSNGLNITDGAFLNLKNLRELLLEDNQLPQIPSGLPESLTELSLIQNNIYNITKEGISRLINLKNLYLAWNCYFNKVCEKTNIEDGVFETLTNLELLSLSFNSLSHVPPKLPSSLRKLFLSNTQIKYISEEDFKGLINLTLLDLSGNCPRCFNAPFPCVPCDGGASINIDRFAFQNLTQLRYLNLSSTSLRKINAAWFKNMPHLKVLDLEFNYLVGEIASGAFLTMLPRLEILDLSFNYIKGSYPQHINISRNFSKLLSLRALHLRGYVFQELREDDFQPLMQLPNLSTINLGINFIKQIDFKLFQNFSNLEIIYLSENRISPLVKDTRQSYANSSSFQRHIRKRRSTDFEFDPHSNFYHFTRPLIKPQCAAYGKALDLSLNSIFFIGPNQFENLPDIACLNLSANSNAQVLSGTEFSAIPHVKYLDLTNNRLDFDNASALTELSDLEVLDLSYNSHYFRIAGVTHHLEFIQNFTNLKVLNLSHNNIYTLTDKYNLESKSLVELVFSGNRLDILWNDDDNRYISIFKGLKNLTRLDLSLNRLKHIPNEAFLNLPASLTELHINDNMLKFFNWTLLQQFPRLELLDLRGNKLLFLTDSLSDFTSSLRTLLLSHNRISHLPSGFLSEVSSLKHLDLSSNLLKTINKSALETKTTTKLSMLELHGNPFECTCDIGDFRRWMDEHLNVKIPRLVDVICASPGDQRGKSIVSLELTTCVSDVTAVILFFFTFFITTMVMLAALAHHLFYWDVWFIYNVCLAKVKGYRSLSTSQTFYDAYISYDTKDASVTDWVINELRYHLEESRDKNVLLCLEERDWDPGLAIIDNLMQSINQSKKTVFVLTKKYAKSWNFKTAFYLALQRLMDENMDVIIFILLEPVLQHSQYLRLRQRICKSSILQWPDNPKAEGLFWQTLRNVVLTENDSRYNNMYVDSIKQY

[8] = target: T3, Toll-like receptor 9; test: Antagonist activity at R848 stimulated TRL9 in HEK-Blue hTLR9 cells assessed as inhibition of NF kappa B/Ap-1 activation measured after 20 hrs by SEAP reporter assay; assay type: cell-based
[9] = target: T1, Toll-like receptor 7; test: Antagonist activity at R848 stimulated TRL7 in HEK-Blue hTLR7 cells assessed as inhibition of NF kappa B/Ap-1 activation measured after 20 hrs by SEAP reporter assay; assay type: cell-based
[10] = target: T4, Toll-like receptor 8; test: Antagonist activity at R848 stimulated TRL8 overexpressed in HEK293 cells measured after 20 to 24 hrs by SEAP reporter assay; assay type: cell-based
[11] = Inhibition of MCP-1 secretion in mouse Trex1-knockout bone marrow-derived macrophages incubated for 24 hrs by celltiter-glo assay; assay type: functional, cell-based; conditions: BMDM
[12] = Inhibition of RANTES secretion in mouse Trex1-knockout bone marrow-derived macrophages incubated for 24 hrs by celltiter-glo assay; assay type: functional, cell-based; conditions: BMDM
[13] = target: T2, Cyclic GMP-AMP synthase; test: Antagonist activity at N-terminal 6XHis tagged human cGAS (155 to 522 residues) expressed in Escherichia coli BL21 DE3 Rosetta 2 in presence of ATP by luciferase based assay
[14] = target: T2, Cyclic GMP-AMP synthase; test: Inhibition of N-terminal 6XHis-SUMO2 fused full length human cGAS (1 to 522 residues) expressed in […] incubated for 20 mins in presence of ATP by luminescence based analysis
[15] = Cytotoxicity against human THP1-Dual KO-IFNAR2 cells assessed as cell growth inhibition; assay type: functional, cell-based
[16] = system: THP-1; test: Cytotoxicity against human THP-1 cells assessed as cell growth inhibition measured after 24 hrs by Celltiter-Glo assay; assay type: functional, cell-based; conditions: THP-1, 24 h
[17] = system: IMR-90; test: Cytotoxicity against human IMR-90 cells assessed as inhibition of IFN-beta production by MTS assay; assay type: functional, cell-based
[18] = target: Stimulator of interferon genes protein (Homo sapiens, UniProt Q86WV6); test: Binding affinity to wild-type human STING CTD (149 to 379 residues) expressed in Escherichia coli BL21 (DE3) assessed as dissociation constant by isothermal titration calorimetry assay
[19] = system: THP-1; test: Cytotoxicity against human THP-1 cells assessed as cell growth inhibition; assay type: functional, cell-based
[20] = target: T2, Cyclic GMP-AMP synthase; test: Inhibition of full-length human cGAS by fluorescence polarization

T2 sequence (Q8N884 whole entry): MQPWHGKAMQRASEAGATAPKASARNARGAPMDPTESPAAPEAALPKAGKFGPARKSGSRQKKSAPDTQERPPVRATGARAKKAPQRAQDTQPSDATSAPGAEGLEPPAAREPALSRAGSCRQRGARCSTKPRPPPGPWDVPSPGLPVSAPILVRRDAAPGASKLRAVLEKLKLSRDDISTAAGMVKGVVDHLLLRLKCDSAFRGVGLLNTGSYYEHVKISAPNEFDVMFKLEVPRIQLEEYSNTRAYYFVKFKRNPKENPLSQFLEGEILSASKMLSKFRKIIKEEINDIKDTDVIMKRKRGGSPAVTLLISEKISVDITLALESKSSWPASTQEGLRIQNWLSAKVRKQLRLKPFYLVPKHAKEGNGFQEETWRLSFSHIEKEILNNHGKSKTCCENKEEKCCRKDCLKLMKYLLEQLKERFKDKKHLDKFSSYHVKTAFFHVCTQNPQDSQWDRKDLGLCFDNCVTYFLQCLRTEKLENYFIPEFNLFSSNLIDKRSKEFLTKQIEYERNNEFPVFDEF
Sequence of NACHT, LRR and PYD domains-containing protein 3 (Q8R4B8 whole entry, the tested form may be a part): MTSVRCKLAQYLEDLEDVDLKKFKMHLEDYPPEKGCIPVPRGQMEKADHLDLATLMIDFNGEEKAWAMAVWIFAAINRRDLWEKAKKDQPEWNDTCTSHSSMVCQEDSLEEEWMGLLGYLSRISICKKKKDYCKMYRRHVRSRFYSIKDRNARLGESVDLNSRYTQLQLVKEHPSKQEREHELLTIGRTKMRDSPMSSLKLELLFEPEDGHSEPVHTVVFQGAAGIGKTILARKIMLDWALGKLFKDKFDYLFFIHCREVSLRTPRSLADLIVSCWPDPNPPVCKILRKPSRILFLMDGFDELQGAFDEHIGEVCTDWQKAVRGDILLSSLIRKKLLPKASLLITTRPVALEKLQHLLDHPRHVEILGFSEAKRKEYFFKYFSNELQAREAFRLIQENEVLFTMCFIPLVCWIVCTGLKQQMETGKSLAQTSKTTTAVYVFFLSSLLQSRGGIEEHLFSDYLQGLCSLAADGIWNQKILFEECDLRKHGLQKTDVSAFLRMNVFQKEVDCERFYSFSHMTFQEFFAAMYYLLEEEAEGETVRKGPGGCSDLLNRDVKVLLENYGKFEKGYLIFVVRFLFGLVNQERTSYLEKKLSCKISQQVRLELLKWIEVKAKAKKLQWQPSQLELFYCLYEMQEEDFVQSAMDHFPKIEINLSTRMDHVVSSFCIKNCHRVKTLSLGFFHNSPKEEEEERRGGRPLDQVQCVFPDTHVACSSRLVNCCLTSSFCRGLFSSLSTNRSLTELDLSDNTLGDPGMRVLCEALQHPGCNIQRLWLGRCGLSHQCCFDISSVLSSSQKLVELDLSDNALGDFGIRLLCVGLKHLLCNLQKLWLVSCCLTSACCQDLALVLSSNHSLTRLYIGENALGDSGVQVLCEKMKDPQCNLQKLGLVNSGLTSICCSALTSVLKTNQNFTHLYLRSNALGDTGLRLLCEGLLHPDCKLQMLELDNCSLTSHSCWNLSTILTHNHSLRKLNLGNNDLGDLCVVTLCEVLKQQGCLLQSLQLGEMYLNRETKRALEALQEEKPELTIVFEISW
Sequence of Stimulator of interferon genes protein (Q86WV6 whole entry, the tested form may be a part): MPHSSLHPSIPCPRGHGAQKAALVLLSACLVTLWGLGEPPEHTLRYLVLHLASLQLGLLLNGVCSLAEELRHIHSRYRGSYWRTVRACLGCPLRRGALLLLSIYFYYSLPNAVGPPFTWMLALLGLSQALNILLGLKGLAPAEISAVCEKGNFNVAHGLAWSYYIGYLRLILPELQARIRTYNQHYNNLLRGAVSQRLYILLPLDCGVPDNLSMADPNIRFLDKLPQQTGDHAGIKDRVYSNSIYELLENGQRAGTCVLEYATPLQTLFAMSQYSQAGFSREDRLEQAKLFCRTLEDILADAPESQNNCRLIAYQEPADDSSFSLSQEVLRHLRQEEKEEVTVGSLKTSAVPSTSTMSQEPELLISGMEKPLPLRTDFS

IC50 [3]: 13000 nM
SMILES: Cc1nc(N2C[C@@H](CC(=O)Nc3ccncc3)C[C@H]2C(=O)O)c2oc3ccccc3c2n1

IC50 [5]: 25000 nM
SMILES: COc1ccc(/C=C/C(=O)Nc2ccccc2C(=O)O)cc1OC

IC50 [7]: < 3 nM
IC50 [8]: < 32 nM
IC50 [9]: < 3 nM
SMILES: Cc1cc(N2CCOC3(CN(C[C@H]4CN(c5ccc(C#N)c6ncccc56)C[C@@H](C)O4)C3)C2)cc(C)n1

IC50 [13]: < 20000 nM
SMILES: COc1cccc2oc(-c3c(C#N)[nH]c4c(-c5ccccc5)c(C(F)(F)F)nn4c3=O)nc12
IC50 [11]: 6970 nM
IC50 [12]: 1250 nM

IC50 [20]: < 1000 nM
SMILES: Cc1[nH]n2c(-c3ccccc3)c(C#N)nc2c(=O)c1-c1cccc(Cl)c1
IC50 [19]: < 10000 nM

IC50 [7]: < 3 nM
IC50 [8]: < 32 nM
IC50 [9]: < 3 nM
SMILES: COC12CNCC1CN(c1ccc3c(c1)CN1[C@H](C)CN(c4ccc(C#N)c5ncccc45)C[C@H]31)C2 (stereo partly drawn)

Second part, the compound before the results:

SMILES: CCN(C)CC(=O)NC12CCC(Cn3nc(C)c4c3CCN(c3cc(C)nc5c3cnn5C)C4)(CC1)CC2
IC50 [1]: < 0.5 nM

SMILES: Nc1ccc(-c2cc(Cl)c(Cl)c3[nH]c4c(c23)CN(C(=O)CO)CC4)cn1
IC50 [2]: < 1000 nM

SMILES: CNCc1ccc(C(=O)Nc2nc(N3CCN(C4CCCC4)CC3)c3ncn(CCCN4CCCC4)c3n2)cc1
IC50 [4]: 5 nM

SMILES: COc1ccc2nc3cc(N)ccc3c(N(C)CCCN(C)c3ccncc3)c2c1
IC50 [6]: 14000 nM

SMILES: Cc1cccc(-c2ccnc3c(C(N)=O)cnn23)c1
IC50 [10]: 67 nM

SMILES: O=C(O)c1n[nH]c(-n2cnnc2)n1
IC50 [14]: 29900 nM

SMILES: CCCCc1ccc(Nc2c(Nc3c[nH]c4ccccc34)c(=O)c2=O)cc1
IC50 [15]: 200 nM

SMILES: O=C(Nc1cc(-c2ccccc2)ccn1)c1[nH]ncc1[N+](=O)[O-]
IC50 [16]: 2630 nM

SMILES: CCCCc1ccc(NC(=O)Nc2c[nH]c3ncc(F)cc23)cc1
IC50 [15]: 40 nM

SMILES: CC[C@@H]1CC(=O)[C@@H]2[C@H](Cl)[C@H](Cl)CN2C(=O)[C@H](CC)NC(=O)C[C@H](c2ccccc2)NC(=O)[C@H](CO)NC1=O
IC50 [17]: 10800 nM
Kd [18]: 53 nM

SMILES: CCCCc1ccc(S(N)(=O)=Nc2c[nH]c3ccccc23)cc1 (stereo not drawn)
IC50 [15]: 40 nM

SMILES: O=C(O)c1cccc(NC(=O)c2n[nH]c(-n3cnnc3)n2)c1
IC50 [14]: 13100 nM

SMILES: O=C(Nc1c[nH]c2cc(F)c(F)cc12)c1ncn(Cc2ccc(C(F)(F)F)cc2)n1
IC50 [15]: 40 nM

SMILES: COC(=O)[C@H](Cc1ccccc1)Nc1nc(NCc2nc3cc(F)ccc3[nH]2)nc(Nc2cccc(CN3CCN(C(=O)c4nccnc4O)CC3)c2)n1
IC50 [19]: 20000 nM
